Measured values from ChEMBL document CHEMBL5696442, “Discovery of type II inhibitors of TGFβ-activated kinase 1 (TAK1) and mitogen-activated protein kinase kinase kinase kinase 2 (MAP4K2)” (J Med Chem, 2015).
Activity calls are given as the source filed them. No cut-off for these calls is given here.

How the values were obtained:
[1] = target: Serine/threonine-protein kinase 4 (Homo sapiens) (UniProt Q13043); test: Inhibition of MST1 Lys1 labeling site harbouring AIHKETGQIVAIKQVPVESDLQEIIK in human Huh-7 cell lysate at 1 uM by KiNativ Profiling analysis relative to control
Sequence of Serine/threonine-protein kinase 4 (Homo sapiens) (Q13043 whole entry, looked up): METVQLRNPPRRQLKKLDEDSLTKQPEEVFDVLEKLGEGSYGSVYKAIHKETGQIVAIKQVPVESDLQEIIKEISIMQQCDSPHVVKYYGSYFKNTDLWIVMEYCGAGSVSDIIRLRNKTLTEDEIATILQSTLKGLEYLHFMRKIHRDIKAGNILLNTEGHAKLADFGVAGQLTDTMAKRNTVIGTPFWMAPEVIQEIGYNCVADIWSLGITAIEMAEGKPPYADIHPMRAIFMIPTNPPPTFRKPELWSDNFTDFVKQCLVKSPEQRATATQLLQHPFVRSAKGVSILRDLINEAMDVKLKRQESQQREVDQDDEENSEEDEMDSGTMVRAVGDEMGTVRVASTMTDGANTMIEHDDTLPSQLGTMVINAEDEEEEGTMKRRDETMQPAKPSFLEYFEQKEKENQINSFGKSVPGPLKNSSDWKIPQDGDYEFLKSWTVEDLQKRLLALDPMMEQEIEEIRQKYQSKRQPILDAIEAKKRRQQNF

[2] = target: Serine/threonine-protein kinase 10 (Homo sapiens) (UniProt O94804); test: Inhibition of LOK Lys1 labeling site harbouring NKETGALAAAKVIETK in human A-375 cells at 5 uM by KiNativ Profiling analysis relative to control; assay type: cell-based
Sequence of Serine/threonine-protein kinase 10 (Homo sapiens) (O94804 whole entry, looked up, the tested form may be a part): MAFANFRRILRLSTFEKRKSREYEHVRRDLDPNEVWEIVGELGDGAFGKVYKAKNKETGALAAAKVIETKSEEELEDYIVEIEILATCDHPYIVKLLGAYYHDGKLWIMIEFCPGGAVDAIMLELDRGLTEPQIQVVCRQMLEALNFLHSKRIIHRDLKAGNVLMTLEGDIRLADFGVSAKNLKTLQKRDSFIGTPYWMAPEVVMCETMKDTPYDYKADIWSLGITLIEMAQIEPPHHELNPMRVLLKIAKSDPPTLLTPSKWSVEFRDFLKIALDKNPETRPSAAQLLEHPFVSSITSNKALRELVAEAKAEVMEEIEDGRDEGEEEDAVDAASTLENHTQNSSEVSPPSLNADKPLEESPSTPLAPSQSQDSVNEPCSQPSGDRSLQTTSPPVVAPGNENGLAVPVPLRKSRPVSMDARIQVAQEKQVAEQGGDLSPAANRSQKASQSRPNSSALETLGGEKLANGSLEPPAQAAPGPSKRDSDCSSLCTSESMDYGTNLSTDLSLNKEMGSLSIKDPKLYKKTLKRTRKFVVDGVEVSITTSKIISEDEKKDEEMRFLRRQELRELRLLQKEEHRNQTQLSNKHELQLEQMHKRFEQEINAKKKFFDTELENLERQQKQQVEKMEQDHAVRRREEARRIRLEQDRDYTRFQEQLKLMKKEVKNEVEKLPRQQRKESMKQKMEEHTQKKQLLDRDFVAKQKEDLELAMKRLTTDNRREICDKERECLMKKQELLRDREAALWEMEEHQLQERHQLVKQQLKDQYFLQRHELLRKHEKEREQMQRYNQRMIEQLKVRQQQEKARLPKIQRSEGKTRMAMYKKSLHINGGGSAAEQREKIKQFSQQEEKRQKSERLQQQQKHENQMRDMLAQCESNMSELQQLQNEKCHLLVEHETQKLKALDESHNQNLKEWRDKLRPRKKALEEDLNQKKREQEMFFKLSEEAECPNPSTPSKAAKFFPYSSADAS

[3] = target: Ribosomal protein S6 kinase alpha-1 (Homo sapiens) (UniProt Q15418); test: Inhibition of RSK1 Domain 1 ACT labeling site in human Huh-7 cells at 10 uM by KiNativ Profiling analysis relative to control; assay type: cell-based
Sequence of Ribosomal protein S6 kinase alpha-1 (Homo sapiens) (Q15418 whole entry, the tested form may be a part): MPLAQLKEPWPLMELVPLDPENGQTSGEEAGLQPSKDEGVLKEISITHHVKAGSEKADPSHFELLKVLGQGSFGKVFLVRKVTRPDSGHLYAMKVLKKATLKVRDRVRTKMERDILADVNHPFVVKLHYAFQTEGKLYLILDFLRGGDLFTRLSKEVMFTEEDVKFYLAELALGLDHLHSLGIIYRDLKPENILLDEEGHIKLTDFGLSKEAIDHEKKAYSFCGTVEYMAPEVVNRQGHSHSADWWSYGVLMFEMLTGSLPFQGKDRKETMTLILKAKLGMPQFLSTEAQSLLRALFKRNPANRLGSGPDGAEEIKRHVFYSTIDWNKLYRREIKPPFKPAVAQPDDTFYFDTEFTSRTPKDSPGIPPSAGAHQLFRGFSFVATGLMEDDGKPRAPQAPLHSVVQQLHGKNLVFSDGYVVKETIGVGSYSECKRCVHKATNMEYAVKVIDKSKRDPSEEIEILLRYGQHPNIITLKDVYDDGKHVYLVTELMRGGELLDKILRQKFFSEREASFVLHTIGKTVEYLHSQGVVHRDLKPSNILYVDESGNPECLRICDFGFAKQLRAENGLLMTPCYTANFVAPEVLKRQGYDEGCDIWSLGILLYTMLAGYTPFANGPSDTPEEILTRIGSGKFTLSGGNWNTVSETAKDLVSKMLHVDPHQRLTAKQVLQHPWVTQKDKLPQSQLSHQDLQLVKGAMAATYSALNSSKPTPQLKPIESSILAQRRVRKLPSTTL

[4] = target: T1, Serine/threonine-protein kinase Nek1 (Homo sapiens) (UniProt Q96PY6); test: Inhibition of NEK1 (unknown origin) at 10 uM by Ambit Kinomescan binding assay
T1 sequence (whole entry): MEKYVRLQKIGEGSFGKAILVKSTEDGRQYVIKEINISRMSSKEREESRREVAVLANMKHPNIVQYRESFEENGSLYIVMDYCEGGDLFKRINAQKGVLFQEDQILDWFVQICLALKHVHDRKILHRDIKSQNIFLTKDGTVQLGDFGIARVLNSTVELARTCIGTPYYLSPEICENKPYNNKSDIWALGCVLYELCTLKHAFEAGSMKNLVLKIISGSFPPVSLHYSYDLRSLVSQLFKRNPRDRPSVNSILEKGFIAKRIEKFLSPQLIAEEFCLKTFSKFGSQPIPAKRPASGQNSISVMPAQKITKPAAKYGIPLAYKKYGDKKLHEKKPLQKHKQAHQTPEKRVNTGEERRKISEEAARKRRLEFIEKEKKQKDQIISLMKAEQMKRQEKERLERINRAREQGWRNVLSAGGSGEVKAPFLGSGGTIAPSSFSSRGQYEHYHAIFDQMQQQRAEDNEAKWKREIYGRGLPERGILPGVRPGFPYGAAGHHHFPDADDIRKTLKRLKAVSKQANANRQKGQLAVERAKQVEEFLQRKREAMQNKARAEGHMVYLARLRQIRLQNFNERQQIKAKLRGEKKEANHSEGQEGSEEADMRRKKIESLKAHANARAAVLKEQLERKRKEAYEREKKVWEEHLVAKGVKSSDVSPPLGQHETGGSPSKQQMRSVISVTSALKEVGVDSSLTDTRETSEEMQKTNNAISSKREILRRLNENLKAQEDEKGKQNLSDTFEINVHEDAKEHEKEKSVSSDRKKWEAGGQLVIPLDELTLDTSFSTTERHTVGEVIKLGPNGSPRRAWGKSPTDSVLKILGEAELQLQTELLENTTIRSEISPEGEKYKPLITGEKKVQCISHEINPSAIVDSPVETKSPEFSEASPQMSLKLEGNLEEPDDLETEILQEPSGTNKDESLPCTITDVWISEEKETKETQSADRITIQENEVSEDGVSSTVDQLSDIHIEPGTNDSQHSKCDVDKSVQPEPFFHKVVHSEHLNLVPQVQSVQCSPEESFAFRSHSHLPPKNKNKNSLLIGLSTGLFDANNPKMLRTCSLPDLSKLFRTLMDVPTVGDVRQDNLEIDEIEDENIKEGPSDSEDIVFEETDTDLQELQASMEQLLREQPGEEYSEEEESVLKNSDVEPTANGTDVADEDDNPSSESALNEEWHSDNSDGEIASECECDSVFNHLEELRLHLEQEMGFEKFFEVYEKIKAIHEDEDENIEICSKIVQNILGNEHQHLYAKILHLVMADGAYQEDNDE

[5] = target: Calcium/calmodulin-dependent protein kinase type 1 (Homo sapiens) (UniProt Q14012); test: Inhibition of CaMK1a K1 labeling site in human Huh-7 cells at 10 uM by KiNativ Profiling analysis relative to control; assay type: cell-based
Sequence of Calcium/calmodulin-dependent protein kinase type 1 (Homo sapiens) (Q14012 whole entry, looked up): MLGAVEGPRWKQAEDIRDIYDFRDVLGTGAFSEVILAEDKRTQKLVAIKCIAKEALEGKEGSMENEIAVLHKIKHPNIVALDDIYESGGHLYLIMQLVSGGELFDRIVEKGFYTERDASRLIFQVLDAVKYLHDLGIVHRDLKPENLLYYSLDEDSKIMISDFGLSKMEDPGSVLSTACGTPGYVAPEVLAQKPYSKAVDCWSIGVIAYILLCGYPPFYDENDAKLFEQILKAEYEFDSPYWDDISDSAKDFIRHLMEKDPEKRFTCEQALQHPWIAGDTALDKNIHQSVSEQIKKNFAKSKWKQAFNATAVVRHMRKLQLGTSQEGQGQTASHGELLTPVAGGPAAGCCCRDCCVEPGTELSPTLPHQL

[6] = target: Calcium/calmodulin-dependent protein kinase type II subunit beta (Homo sapiens) (UniProt Q13554); test: Inhibition of CAMK2B (unknown origin) at 10 uM by Ambit Kinomescan binding assay
Sequence of Calcium/calmodulin-dependent protein kinase type II subunit beta (Homo sapiens) (Q13554 whole entry): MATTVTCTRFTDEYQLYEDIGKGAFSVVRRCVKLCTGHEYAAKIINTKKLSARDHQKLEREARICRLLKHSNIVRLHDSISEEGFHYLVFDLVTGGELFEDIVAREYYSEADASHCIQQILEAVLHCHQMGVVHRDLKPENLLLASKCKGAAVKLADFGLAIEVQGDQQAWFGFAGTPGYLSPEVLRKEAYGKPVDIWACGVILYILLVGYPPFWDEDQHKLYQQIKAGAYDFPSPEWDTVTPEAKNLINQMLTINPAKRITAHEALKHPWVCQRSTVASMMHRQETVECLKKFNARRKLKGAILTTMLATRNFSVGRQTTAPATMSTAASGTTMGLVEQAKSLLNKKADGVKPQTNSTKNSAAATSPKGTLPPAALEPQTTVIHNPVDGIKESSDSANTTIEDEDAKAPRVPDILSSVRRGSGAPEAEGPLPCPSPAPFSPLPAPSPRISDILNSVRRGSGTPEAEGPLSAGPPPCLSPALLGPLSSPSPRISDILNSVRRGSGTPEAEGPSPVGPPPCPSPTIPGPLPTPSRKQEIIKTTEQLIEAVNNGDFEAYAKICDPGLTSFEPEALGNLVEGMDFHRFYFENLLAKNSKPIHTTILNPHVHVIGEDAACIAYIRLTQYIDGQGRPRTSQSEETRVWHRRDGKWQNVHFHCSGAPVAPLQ

[7] = target: T2, NUAK family SNF1-like kinase 1 (Homo sapiens) (UniProt O60285); test: Inhibition of ARK5 (unknown origin) at 1 uM by Ambit Kinomescan binding assay relative to control
T2 sequence (whole entry): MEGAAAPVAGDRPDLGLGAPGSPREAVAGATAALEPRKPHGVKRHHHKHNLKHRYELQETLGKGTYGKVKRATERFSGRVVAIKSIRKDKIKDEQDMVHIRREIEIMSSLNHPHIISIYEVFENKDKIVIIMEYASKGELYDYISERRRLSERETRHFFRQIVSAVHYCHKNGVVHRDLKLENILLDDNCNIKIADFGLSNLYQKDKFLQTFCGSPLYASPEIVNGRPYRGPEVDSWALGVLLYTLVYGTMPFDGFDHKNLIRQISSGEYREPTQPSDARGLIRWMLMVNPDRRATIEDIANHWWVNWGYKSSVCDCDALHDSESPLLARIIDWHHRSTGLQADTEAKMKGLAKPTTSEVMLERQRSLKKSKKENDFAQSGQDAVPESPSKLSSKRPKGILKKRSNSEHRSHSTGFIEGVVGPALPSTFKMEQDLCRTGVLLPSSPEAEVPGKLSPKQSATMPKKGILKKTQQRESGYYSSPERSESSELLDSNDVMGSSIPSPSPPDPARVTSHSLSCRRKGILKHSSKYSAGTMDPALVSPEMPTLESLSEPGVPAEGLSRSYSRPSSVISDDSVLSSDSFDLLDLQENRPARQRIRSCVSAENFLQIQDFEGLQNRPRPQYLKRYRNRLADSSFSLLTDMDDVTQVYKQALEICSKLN

CNc1cc(Oc2cc(C(=O)Nc3cc(N4CCN(C)CC4)cc(C(F)(F)F)c3)ccc2C)ncn1
inhibition [1]: 12.8%

CCN1CCN(Cc2ccc(NC(=O)c3ccc(C)c(Oc4ccnc5[nH]ccc45)c3)cc2C(F)(F)F)CC1
inhibition [2]: 85.6% | inhibition [3]: 3.4% | inhibition [4]: inactive | inhibition [5]: 48.2% | inhibition [6]: inactive

CCN1CCN(Cc2ccc(NC(=O)c3ccc(C)c(/C=C/c4cnc5[nH]ccc5c4OC)c3)cc2C(F)(F)F)CC1
inhibition [7]: 100%
